Assays:
Carbonic anhydrase 9 = Carbonic anhydrase 9 (Homo sapiens, UniProt Q16790)
Description: Inhibitory activity against catalytic domain of human cloned Carbonic anhydrase IX by the CO2 hydration method

Carbonic anhydrase 1 = Carbonic anhydrase 1 (Homo sapiens, UniProt P00915)
Description: Inhibitory activity against human cloned Carbonic anhydrase I by the CO2 hydration method

Carbonic anhydrase 2 = Carbonic anhydrase 2 (Homo sapiens, UniProt P00918)
Description: Inhibitory activity against human cloned Carbonic anhydrase II by the CO2 hydration method

Carbonic anhydrase 1, sequence (P00915 whole entry): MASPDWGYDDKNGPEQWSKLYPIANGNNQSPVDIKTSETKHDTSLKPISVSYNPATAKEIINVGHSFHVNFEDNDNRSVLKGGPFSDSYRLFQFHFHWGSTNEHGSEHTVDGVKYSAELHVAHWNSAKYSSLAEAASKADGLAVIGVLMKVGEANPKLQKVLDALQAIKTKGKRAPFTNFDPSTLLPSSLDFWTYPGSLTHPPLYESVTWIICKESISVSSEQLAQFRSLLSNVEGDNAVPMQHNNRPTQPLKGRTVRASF

| Compound | Ki (Carbonic anhydrase 9) [nM] | Ki (Carbonic anhydrase 1) [nM] | Ki (Carbonic anhydrase 2) [nM] |
| --- | --- | --- | --- |
| CCCCOC1CS(=O)(=O)c2cc(S(N)(=O)=O)ccc21 (stereo not given) | 3.1 | 104 | 6.3 |
| CC1=CS(=O)(=O)c2cc(S(N)(=O)=O)ccc21 | 13 | 85 | 8.3 |
| NS(=O)(=O)c1ccc2c(c1)S(=O)(=O)CC2OCc1ccccc1 (stereo not given) | 2.8 | 138 | 7.9 |
| NS(=O)(=O)c1ccc2c(c1)S(=O)(=O)CC2 | 10 | 72 | 8.8 |

Further lines, results first:

| Ki (Carbonic anhydrase 9) [nM] | Ki (Carbonic anhydrase 1) [nM] | Ki (Carbonic anhydrase 2) [nM] | Compound |
| --- | --- | --- | --- |
| 362 | 530 | 436 | CCNS(=O)(=O)c1ccc2c(c1)S(=O)(=O)C=C2 |
| 76 | 493 | 475 | O=S1(=O)C=Cc2ccc(S(=O)(=O)NCC3CC3)cc21 |
| > 1000 | > 1000 | > 1000 | O=S1(=O)C=Cc2ccc(S(=O)(=O)NCc3ccccc3)cc21 |
| 13 | 75 | 7.4 | NS(=O)(=O)c1ccc2c(c1)C=CS2(=O)=O |
| 15 | 63 | 7.5 | NS(=O)(=O)c1ccc2c(c1)S(=O)(=O)C=C2 |
| > 1000 | > 1000 | > 1000 | COc1cccc(NS(=O)(=O)c2ccc3c(c2)C=CS3(=O)=O)c1 |
